Laboratory results taken from patent publication US10370391B2, “Hydrogen peroxide-activable, anti-oxidant compounds and methods using same” (Beth Israel Deaconess Medical Center, Inc., priority 2014, dated 2019).

Legend:
[1] = H2O2 scavenging by peroxalate chemiluminescence (diphenyl oxalate, rubrene)
Method: FIG. 21 is a bar graph illustrating H2O2-scavenging by BRAP-encapsulated PLGA microparticles. BRAP-encapsulated PLGA microparticles were incubated in H2O2 solution (10 μM) for 10 minutes, and the level of H2O2 was determined by peroxalate chemiluminesce using rubrene (1 mg) and diphenylperoxalate (10 mg).
Without wishing to be limited by any theory, BRAP could scavenge H2O2 during its H2O2-mediated boronate oxidation. This possibility was investigated using peroxalate chemiluminescence. Peroxalate chemiluminescence has been used as a versatile tool for the detection of a variety of chemical species including fluorescent molecules and H2O2 because of its excellent specificity and simplicity (Hadd, et al., 1999, J. Chem. Educ. 76:1237; Lee, et al., 2011, Bull. Korean Chem. Soc. 32:2187). […] A majority of H2O2 was scavenged by the same concentration of BRAP within 1 minutes.
The ability of the boronate compound to scavenge H2O2 was evaluated by measuring the chemiluminescence intensity after the reaction with diphenyl oxalate solution including rubrene. The boronate (1 μM, or 10 μM) was added in the H2O2 solution (10 μM). After 1 min reaction with H2O2, diphenyl oxalate solution was added to the H2O2 solution, and the chemiluminescence intensity was measured by using a luminometer (Femtomaster FB 12, Zylux Corporation, TN, US; FIG. 13).
The ability of BRAP to scavenge H2O2 was evaluated by measuring the chemiluminescence intensity after the reaction with diphenyl oxalate solution including rubrene. BRAP (1 μM, 5 μM, 10 μM, 20 μM) was added in the H2O2 solution (10 μM). After 1, 5 or 10 min reaction with H2O2, diphenyl oxalate solution was added to the H2O2 solution, and the chemiluminescence intensity was measured by using a luminometer (Femtomaster FB 12, Zylux Corporation, TN, US).

hepatic I/R injury = test: Mouse model of hepatic I/R injury; format: in vivo; settings: ip at reperfusion
Method: FIG. 5, comprising FIGS. 5A-5D, is a set of images and bar graphs illustrating beneficial effects of BRAP in hepatic I/R (1 hour ischemia/12 hour reperfusion) injury. FIG. 5A: Hematoxylin and eosin (H/E) staining, DHE staining, and TUNEL staining of mouse liver after injection with HBA or BRAP. FIGS. 5B-5D: Quantitative analysis of serum ALT levels (FIG. 5B), cleaved caspase-3 protein expression (FIG. 5C), and TNF-α protein expression (FIG. 5D) after I/R injury. *p<0.01 relative to Veh I/R. †p<0.05 relative to HBA I/R (n=3˜4/group). Actin protein expression was used as an internal control for protein loading.
Experiments to evaluate whether BRAP reduces ROS generation and inhibits apoptosis were performed in a mouse model of […] I/R injuries. I/R was induced first by 1 hour of ligation of hepatic artery and portal vein followed by reperfusion of hepatic artery. BRAP or HBA was then administrated intraperitoneally (ip) at the time of reperfusion.
Hepatic I/R surgery was performed in 12 week-old male mice. Briefly, mice were anaesthetized, and midline incision was performed for laparotomy. After identifying the portal triad and biliary tree, the main trunk of hepatic artery and portal vein were clamped with vascular clip except for the vasculatures to the right lower lobe to achieve ischemic injury to approximately 70% of the liver. After 1 hour of ischemia, reperfusion was achieved by releasing the vascular clip. No vascular clamp was done for the sham group of mice.
For liver apoptosis assay, terminal deoxynucleotidyl transferase dUTP nick end labeling (TUNEL) staining was performed using a DeadEnd™ Fluorometric TUNEL kit (Promega, Madison, Wis.). Tissue sections were stained for nuclei (4′,6-diamidino-2-phenylindole (DAPI) staining) and apoptotic nuclei (TUNEL staining) and analyzed using a confocal laser scanning microscope. For heart tissues, TUNEL staining was performed using in situ cell death detection Kit, fluorescein (Roche Applied Science, Indianapolis, Ind.). To distinguish cardiomyocyte from non-cardiomyocyte nuclei, triple stain for nuclei (DAPI staining), apoptotic nuclei (TUNEL staining), and cardiomyocytes (α-Actinin staining) was used, and the stained sections were analyzed using confocal microscopy. A minimum of ˜10 high power fields with ˜2000 nuclei/field were counted for each sample.
Heart tissues were collected for molecular analyses were performed in Bae, et al., 2010, Am J Physiol Heart Circ Physiol 299:H1374. For RT-PCR ribosomal 18S primers acted as internal controls and all RT-PCR signals were normalized to the 18S signal of the corresponding RT products. For Western blot analysis, the protein content was measured using BCA assay. Actin protein expression was used as an internal control for protein loading.
The optimal cutting temperature (OCT)-embedded tissues were fixed in 4% paraformaldehyde. Tissue sections were incubated with 5 μM dihydroethidium (DHE, Sigma-Aldrich) at 37° C. for 30 min in a humidified chamber protected from light. Then, 4′,6-diamidino-2-phenylindole (DAPI) was applied. Images were acquired by confocal fluorescence microscope.

With `CC1(CO)COB(c2ccc(CO)cc2)OC1` [BRAP, (4-(5-(hydroxymethyl)-5-methyl-1,3,2-dioxaborinan-2-yl)phenyl)methanol] the “chemiluminescence intensity (H2O2 scavenging)” value ([1]; H2O2 solution 10 μM, BRAP, concentration-dependent) was “significant reduction in chemiluminescence intensity”, the “time in which a majority of H2O2 was scavenged” value ([1]; same concentration of BRAP as H2O2) was at most 1 min and the “ROS generation (DHE staining) in liver” value (hepatic I/R injury) was “higher inhibitory effects on ROS generation than HBA”. For the same compound, the “protection from I/R-induced liver damage (serum ALT)” value (hepatic I/R injury) was “concentration-dependent protection”, the “hepatic damages (histology, H/E)” value (hepatic I/R injury; 1 hour ischemia/12 hour reperfusion, same dose of HBA and BRAP) was “significant attenuation” and the TNF-α protein expression (hepatic I/R injury; same dose of HBA and BRAP) was “significant inhibition”. For the same compound, the “cleaved caspase-3 protein expression” value (hepatic I/R injury; same dose of HBA and BRAP) was “significant inhibition” and the “hepatic apoptosis (TUNEL)” value (hepatic I/R injury; same dose of HBA and BRAP) was “significantly greater anti-apoptotic effects than HBA”.
